Laboratory results taken from the NIST ThermoML archive (doi:10.1021/je034012m).
“And” between values parts separate entries of the source, which are not always exact repeats. Equal values may be shown once. ± gives the expanded uncertainty stated by the source.

Settings: Crystal

O.O.[Ba+2].[Cl-].[Cl-] [barium chloride dihydrate]
Settings | vapor or sublimation pressure
295.45 K | 0.5 ± 0.33 kPa
295.55 K | 0.39 ± 0.32 kPa and 0.53 ± 0.34 kPa
295.65 K | 0.56 ± 0.35 kPa
297.35 K | 0.31 ± 0.35 kPa
304.25 K | 1.22 ± 0.33 kPa
304.55 K | 0.9 ± 0.33 kPa
306.35 K | 1.01 ± 0.33 kPa
306.95 K | 1.31 ± 0.33 kPa
307.25 K | 1.39 ± 0.33 kPa
307.35 K | 1.04 ± 0.33 kPa
308.25 K | 1.19 ± 0.32 kPa
309.45 K | 1.3 ± 0.33 kPa
319.05 K | 2.5 ± 0.34 kPa
321.15 K | 2.66 ± 0.47 kPa
323.15 K | 3.88 ± 0.76 kPa
323.45 K | 3.85 ± 0.74 kPa
323.75 K | 3.97 ± 0.73 kPa
324.15 K | 4.05 ± 0.64 kPa
324.85 K | 5.15 ± 1.1 kPa
325.55 K | 5.1 ± 0.83 kPa
336.95 K | 9.4 ± 0.6 kPa
343.65 K | 13.59 ± 0.76 kPa

O.[Ba+2].[Cl-].[Cl-] [barium chloride monohydrate]
Settings | vapor or sublimation pressure
290.45 K | 0.086 ± 0.15 kPa
304.15 K | 0.173 ± 0.16 kPa
304.45 K | 0.146 ± 0.16 kPa
305.25 K | 0.138 ± 0.16 kPa
307.25 K | 0.133 ± 0.16 kPa
307.45 K | 0.231 ± 0.16 kPa
307.95 K | 0.17 ± 0.16 kPa
308.05 K | 0.142 ± 0.16 kPa
308.45 K | 0.248 ± 0.16 kPa and 0.272 ± 0.16 kPa
308.65 K | 0.241 ± 0.16 kPa
308.95 K | 0.105 ± 0.16 kPa
309.05 K | 0.195 ± 0.16 kPa
309.25 K | 0.344 ± 0.16 kPa
310.15 K | 0.199 ± 0.16 kPa
311.45 K | 0.16 ± 0.16 kPa
312.95 K | 0.24 ± 0.16 kPa
313.45 K | 0.274 ± 0.16 kPa
315.35 K | 0.35 ± 0.16 kPa
315.95 K | 0.4 ± 0.16 kPa
316.15 K | 0.76 ± 0.16 kPa
318.45 K | 0.312 ± 0.16 kPa
322.85 K | 0.6 ± 0.16 kPa
323.55 K | 0.6 ± 0.16 kPa
334.45 K | 1.04 ± 0.17 kPa and 1.1 ± 0.17 kPa
334.85 K | 1.01 ± 0.25 kPa
334.95 K | 0.96 ± 0.27 kPa
335.45 K | 1.26 ± 0.2 kPa
337.45 K | 1.51 ± 0.18 kPa
337.65 K | 1.47 ± 0.18 kPa
344.95 K | 2.06 ± 0.18 kPa
345.25 K | 2.05 ± 0.18 kPa
